In PubChem BioAssay AID1919017 (Molecular Pharmacology Branch, DTP, NCI, 2023):

System: SW1271 complex spheroids with HUVEC/MSC, growth, % test/control
Experiment: Anticancer human tumor SW1271 cell line growth inhibition [AhR];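 also: spheroids exposed to agents for 7 days before readout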
Conditions: for viability, T/C: stronger effect = lower value
How it was run: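 Spheroids combined tumor cells with HUVEC endothelial cells and human MSCs as stroma. AhR antagonists were paired with standard or investigational drugs, each dosed in half-log steps down from near clinical Cmax, or from 10 microM where Cmax was unknown.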

[1] = curve of first compound, second compound 0.1 µM
[2] = curve of first compound, second compound 0.316 µM
[3] = curve of first compound, second compound 1 µM
[4] = curve of first compound, second compound 3.16 µM
[5] = curve of first compound, second compound 10 µM
[6] = second compound 0.1 µM, first compound 0.00316 µM
[7] = second compound 0.1 µM, first compound 0.01 µM
[8] = second compound 0.1 µM, first compound 0.0316 µM
[9] = second compound 0.1 µM, first compound 0.1 µM
[10] = second compound 0.1 µM, first compound 0.316 µM
[11] = second compound 0.1 µM, first compound 1 µM
[12] = second compound 0.316 µM, first compound 0.00316 µM
[13] = second compound 0.316 µM, first compound 0.01 µM
[14] = second compound 0.316 µM, first compound 0.0316 µM
[15] = second compound 0.316 µM, first compound 0.1 µM
[16] = second compound 0.316 µM, first compound 0.316 µM
[17] = second compound 0.316 µM, first compound 1 µM
[18] = second compound 1 µM, first compound 0.00316 µM
[19] = second compound 1 µM, first compound 0.01 µM
[20] = second compound 1 µM, first compound 0.0316 µM
[21] = second compound 1 µM, first compound 0.1 µM
[22] = second compound 1 µM, first compound 0.316 µM
[23] = second compound 1 µM, first compound 1 µM
[24] = second compound 3.16 µM, first compound 0.00316 µM
[25] = second compound 3.16 µM, first compound 0.01 µM
[26] = second compound 3.16 µM, first compound 0.0316 µM
[27] = second compound 3.16 µM, first compound 0.1 µM
[28] = second compound 3.16 µM, first compound 0.316 µM
[29] = second compound 3.16 µM, first compound 1 µM
[30] = second compound 10 µM, first compound 0.00316 µM
[31] = second compound 10 µM, first compound 0.01 µM
[32] = second compound 10 µM, first compound 0.0316 µM
[33] = second compound 10 µM, first compound 0.1 µM
[34] = second compound 10 µM, first compound 0.316 µM
[35] = second compound 10 µM, first compound 1 µM

Compound	IC50 [1]	IC50 [2]	IC50 [3]	IC50 [4]	IC50 [5]	viability, T/C [6]	viability, T/C [7]	viability, T/C [8]	viability, T/C [9]	viability, T/C [10]	viability, T/C [11]	viability, T/C [12]	viability, T/C [14]	viability, T/C [15]	viability, T/C [20]	viability, T/C [21]	viability, T/C [26]	viability, T/C [27]	viability, T/C [32]	viability, T/C [33]	also measured
Nc1ncn(C2CC(O)C(CO)O2)c(=O)n1 (stereo unspecified) + CC(CO)NC(=O)c1cc(-c2ccc(Cl)cc2)nn(-c2cnn(C)c2)c1=O	> 1000 nM	> 1000 nM	> 1000 nM	> 1000 nM	> 1000 nM	73.8%	85.4%	80%	75.9%	93%	66.8%	78.2%	77.5%	79.7%	81.6%	75.1%	79.3%	67.1%	67.5%	67.2%	viability, T/C [13]: 88%; viability, T/C [16]: 62.1%; viability, T/C [17]: 105%; viability, T/C [18]: 76%; viability, T/C [19]: 79.7%; viability, T/C [22]: 75.8%; viability, T/C [23]: 76.1%; viability, T/C [24]: 60%; viability, T/C [25]: 81%; viability, T/C [28]: 68.8%; viability, T/C [29]: 78%; viability, T/C [30]: 65.9%; viability, T/C [31]: 66.5%; viability, T/C [34]: 59.1%; viability, T/C [35]: 54.6%
CC[C@@]1(O)C(=O)OCc2c1cc1n(c2=O)Cc2cc3c(CN(C)C)c(O)ccc3nc2-1 + Cc1ccccc1N=Nc1ccc(NC(=O)c2ccnn2C)c(C)c1	> 100 nM	> 100 nM	> 100 nM	> 100 nM	> 100 nM	69.4%	67.8%	57.5%	53.1%			79.9%	69.2%	63.9%	63.8%	57.3%	78.2%	67.4%	60.8%	65.5%	viability, T/C (second compound 0.1 µM, first compound 0.000316 µM): 81.8%; viability, T/C (second compound 0.1 µM, first compound 0.001 µM): 98.9%; viability, T/C (second compound 0.316 µM, first compound 0.000316 µM): 89.4%; viability, T/C (second compound 0.316 µM, first compound 0.001 µM): 92%; viability, T/C [13]: 65.8%; viability, T/C (second compound 1 µM, first compound 0.000316 µM): 77.9%; viability, T/C (second compound 1 µM, first compound 0.001 µM): 83.4%; viability, T/C [18]: 88%; viability, T/C [19]: 80%; viability, T/C (second compound 3.16 µM, first compound 0.000316 µM): 84.5%; viability, T/C (second compound 3.16 µM, first compound 0.001 µM): 86.4%; viability, T/C [24]: 88.7%; viability, T/C [25]: 68.2%; viability, T/C (second compound 10 µM, first compound 0.000316 µM): 86.7%; viability, T/C (second compound 10 µM, first compound 0.001 µM): 83%; viability, T/C [30]: 87.2%; viability, T/C [31]: 62.1%
Cc1ccccc1N=Nc1ccc(NC(=O)c2ccnn2C)c(C)c1																					IC50 (compound alone, run of 08/22/2022): > 10000 nM
COc1cc(C2c3cc4c(cc3C(OC3OC5COC(C)OC5C(O)C3O)C3COC(=O)C23)OCO4)cc(OC)c1O (stereo unspecified) + Cc1ccccc1N=Nc1ccc(NC(=O)c2ccnn2C)c(C)c1	266 nM	267 nM	419 nM	1580 nM	1020 nM			75.4%	58.1%	44.1%	50.4%		54.1%	53.9%	88.8%	67.5%	66.8%	80.4%	62%	61.7%	viability, T/C (second compound 0.1 µM, first compound 3.16 µM): 46.9%; viability, T/C (second compound 0.1 µM, first compound 10 µM): 45.6%; viability, T/C [16]: 51.9%; viability, T/C [17]: 46.1%; viability, T/C (second compound 0.316 µM, first compound 3.16 µM): 40.4%; viability, T/C (second compound 0.316 µM, first compound 10 µM): 44.7%; viability, T/C [22]: 49.6%; viability, T/C [23]: 44.1%; viability, T/C (second compound 1 µM, first compound 3.16 µM): 47.4%; viability, T/C (second compound 1 µM, first compound 10 µM): 35.3%; viability, T/C [28]: 53.1%; viability, T/C [29]: 49.4%; viability, T/C (second compound 3.16 µM, first compound 3.16 µM): 51.2%; viability, T/C (second compound 3.16 µM, first compound 10 µM): 34%; viability, T/C [34]: 54%; viability, T/C [35]: 50.2%; viability, T/C (second compound 10 µM, first compound 3.16 µM): 43.8%; viability, T/C (second compound 10 µM, first compound 10 µM): 37.2%
